The text below walks through data of patent US20030110574A1, “Use of optical brighteners from the class of the stilbene compounds as antimicrobially active substances” (priority 2000, published 2003).

In the assay the test system is bacterial mixture of Staphylococcus aureus ATCC 9144 and Escherichia coli NCTC 8196. The experiment in a line: Antimicrobial activity in agar plates after irradiation with xenon light, viable bacteria counted. The class given is cell-based. The procedure: Determination of Antimicrobial Activity of Tinopal CBS-X after Irradiation with Light
The optical brightener of the formula [drawing 28]
is incorporated in agar plates and subsequently inoculated with bacteria and irradiated with xenon light for 10 minutes or 30 minutes.
The test is used to detect antimicrobial activity by comparison with unirradiated samples.
To this end, a 1.5% stock solution in DMSO is prepared.
0.5 and 0.1 ml of this solution are added to 15 ml of liquid agar (final concentration: 500 and 100 ppm).
After solidification and drying, a bacterial mixture of Staphylococcus aureus and Escherichia coli is plated out on the agar (final concentration cfu/ml:˜10^5). The plates are fixed on cotton by means of double sided Scotch tape and are irradiated with a xenon lamp for 10 or 30 minutes.
Unirradiated agar plattes including 100 and 500 ppm of Tinopal CBS-X and agar plates without Tinopal are incubated as controls.
All plates were incubated at 37° C. for about 48 hours. After incubation, viable bacteria are counted (see Table 1).
Staphylococcus aureus ATCC 9144
Escherichia coli NCTC 8196
Cultures 18 to 24 hours in casein soymeal peptone broth diluted 1:5000 (Staph.) and 1:10,000 (E. coli) and mixed together
The table reports the number of colony-forming units of bacteria after 10 minutes' and 30 minutes' irradiation.

As to `O=S(=O)([O-])c1ccccc1C=Cc1ccc(-c2ccc(C=Cc3ccccc3S(=O)(=O)[O-])cc2)cc1.[Na+].[Na+]` [Tinopal CBS-X], the “number of colony-forming units of bacteria” value is given as 4.4 × 10^4 (t: 0′) colony-forming units (100 ppm in agar, control not irradiated with xenon light (t: 0′)); 2.3 × 10^4 colony-forming units (100 ppm in agar, irradiated with xenon light, 10 minutes, incubated 37° C. about 48 hours); 5.1 × 10^2 colony-forming units (100 ppm in agar, irradiated with xenon light, 30 minutes, incubated 37° C. about 48 hours); 4.3 × 10^4 (t: 0′) colony-forming units (500 ppm in agar, control not irradiated with xenon light (t: 0′)); 3.0 × 10^4 colony-forming units (500 ppm in agar, irradiated with xenon light, 10 minutes, incubated 37° C. about 48 hours); 1.5 × 10^2 colony-forming units (500 ppm in agar, irradiated with xenon light, 30 minutes, incubated 37° C. about 48 hours). Besides, under “100 ppm or 500 ppm in agar nutrient medium, 30 minutes' irradiation with a xenon lamp”, the “reduction of the microorganisms compared with unirradiated plates and plates without Tinopal CBS-X” value is reported as “effective to substantially reduce the microorganisms”.
